# Experimental data taken from patent publication US20240269139A1, “COMPOUNDS FOR TARGETED PROTEIN DEGRADATION OF KINASES” (DANA-FARBER CANCER INSTITUTE, INC., priority 2020, published 2024).
# Read-outs that look alike come from different tables or passages of the source.
# Tests used:
# Assay type in all cases: cell-based
# [1] = molecular target: T1, protein kinases (human kinome) (Homo sapiens, UniProt Q4G0N4); settings: Accession Q4GON4, direction down
# T1 sequence (Q4G0N4 63-442): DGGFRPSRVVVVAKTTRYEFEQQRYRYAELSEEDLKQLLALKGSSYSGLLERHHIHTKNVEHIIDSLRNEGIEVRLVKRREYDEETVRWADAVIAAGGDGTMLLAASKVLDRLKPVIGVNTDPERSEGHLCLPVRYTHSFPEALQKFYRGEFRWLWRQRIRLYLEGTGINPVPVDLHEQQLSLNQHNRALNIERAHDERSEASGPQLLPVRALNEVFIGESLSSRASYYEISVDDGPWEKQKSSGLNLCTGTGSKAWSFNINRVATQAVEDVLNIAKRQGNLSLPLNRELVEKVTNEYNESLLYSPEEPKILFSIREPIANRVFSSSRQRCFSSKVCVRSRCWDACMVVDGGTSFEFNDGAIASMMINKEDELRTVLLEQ
# [2] = molecular target: T2, protein kinases (human kinome) (Homo sapiens, UniProt Q53H12); settings: direction down
# T2 sequence (Q53H12 1-422): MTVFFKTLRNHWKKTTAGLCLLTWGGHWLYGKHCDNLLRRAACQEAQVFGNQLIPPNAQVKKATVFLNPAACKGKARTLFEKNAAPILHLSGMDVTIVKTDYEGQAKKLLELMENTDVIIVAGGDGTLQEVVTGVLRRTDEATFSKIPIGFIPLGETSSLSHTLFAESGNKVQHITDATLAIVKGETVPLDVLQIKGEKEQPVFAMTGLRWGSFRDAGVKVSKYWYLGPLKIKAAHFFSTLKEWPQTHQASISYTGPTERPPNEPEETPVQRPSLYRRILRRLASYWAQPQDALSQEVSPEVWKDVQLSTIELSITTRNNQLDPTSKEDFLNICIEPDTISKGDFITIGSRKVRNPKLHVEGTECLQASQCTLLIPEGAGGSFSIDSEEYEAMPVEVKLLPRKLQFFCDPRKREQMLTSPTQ
# [3] = molecular target: T3, protein kinases (human kinome) (Homo sapiens, UniProt Q969Z0); settings: Accession Q969Z0-1, direction down
# T3 sequence (Q969Z0 108-631): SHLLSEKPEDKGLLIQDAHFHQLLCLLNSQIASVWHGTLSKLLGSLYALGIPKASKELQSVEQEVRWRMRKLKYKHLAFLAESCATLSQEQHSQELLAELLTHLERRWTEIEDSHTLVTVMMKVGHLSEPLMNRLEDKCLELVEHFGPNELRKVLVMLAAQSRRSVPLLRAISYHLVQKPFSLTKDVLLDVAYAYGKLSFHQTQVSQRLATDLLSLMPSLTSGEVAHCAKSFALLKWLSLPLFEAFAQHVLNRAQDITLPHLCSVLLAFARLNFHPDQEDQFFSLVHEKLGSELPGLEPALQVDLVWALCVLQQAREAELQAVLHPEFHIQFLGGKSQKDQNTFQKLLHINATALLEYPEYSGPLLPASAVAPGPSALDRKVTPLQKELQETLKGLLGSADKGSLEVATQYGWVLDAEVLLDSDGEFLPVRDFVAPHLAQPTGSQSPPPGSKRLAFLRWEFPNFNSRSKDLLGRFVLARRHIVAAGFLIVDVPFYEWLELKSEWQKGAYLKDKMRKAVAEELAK
# [4] = molecular target: protein kinases (human kinome) (Homo sapiens, UniProt P24941)
# [5] = molecular target: protein kinases (human kinome) (Homo sapiens, UniProt P41240); settings: for logFC of CSK: Accession P41240; for logFC CSK: CSK (P41240), down
# Chain of protein kinases (human kinome) (Homo sapiens, UniProt P41240) (P41240 whole entry): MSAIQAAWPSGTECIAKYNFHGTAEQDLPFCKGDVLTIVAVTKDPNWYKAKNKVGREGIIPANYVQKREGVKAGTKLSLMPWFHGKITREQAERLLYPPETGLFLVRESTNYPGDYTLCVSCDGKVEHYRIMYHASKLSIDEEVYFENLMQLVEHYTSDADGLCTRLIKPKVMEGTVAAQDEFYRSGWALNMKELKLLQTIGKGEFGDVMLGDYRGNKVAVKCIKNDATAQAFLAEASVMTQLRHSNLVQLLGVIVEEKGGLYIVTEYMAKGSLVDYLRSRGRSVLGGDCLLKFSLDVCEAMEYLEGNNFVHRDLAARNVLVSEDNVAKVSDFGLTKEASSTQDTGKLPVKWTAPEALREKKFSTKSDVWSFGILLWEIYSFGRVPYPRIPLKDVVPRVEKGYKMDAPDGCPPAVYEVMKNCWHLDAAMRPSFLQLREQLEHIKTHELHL
# [6] = molecular target: protein kinases (human kinome) (Homo sapiens, UniProt Q00535); settings: for logFC of CDK5: Accession Q00535
# Chain of protein kinases (human kinome) (Homo sapiens, UniProt Q00535) (Q00535 whole entry): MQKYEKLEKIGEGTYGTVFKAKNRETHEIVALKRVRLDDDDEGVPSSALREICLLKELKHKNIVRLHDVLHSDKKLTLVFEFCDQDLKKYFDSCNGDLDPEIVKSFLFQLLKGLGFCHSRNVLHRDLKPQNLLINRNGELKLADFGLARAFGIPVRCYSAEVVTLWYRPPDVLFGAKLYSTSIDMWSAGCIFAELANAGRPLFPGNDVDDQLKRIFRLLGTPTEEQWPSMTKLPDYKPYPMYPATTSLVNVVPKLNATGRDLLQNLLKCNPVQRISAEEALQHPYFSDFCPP
# [7] = molecular target: protein kinases (human kinome) (Homo sapiens, UniProt Q14004); settings: for logFC CDK13: Accession Q14004-1
# Chain of protein kinases (human kinome) (Homo sapiens, UniProt Q14004) (Q14004 whole entry): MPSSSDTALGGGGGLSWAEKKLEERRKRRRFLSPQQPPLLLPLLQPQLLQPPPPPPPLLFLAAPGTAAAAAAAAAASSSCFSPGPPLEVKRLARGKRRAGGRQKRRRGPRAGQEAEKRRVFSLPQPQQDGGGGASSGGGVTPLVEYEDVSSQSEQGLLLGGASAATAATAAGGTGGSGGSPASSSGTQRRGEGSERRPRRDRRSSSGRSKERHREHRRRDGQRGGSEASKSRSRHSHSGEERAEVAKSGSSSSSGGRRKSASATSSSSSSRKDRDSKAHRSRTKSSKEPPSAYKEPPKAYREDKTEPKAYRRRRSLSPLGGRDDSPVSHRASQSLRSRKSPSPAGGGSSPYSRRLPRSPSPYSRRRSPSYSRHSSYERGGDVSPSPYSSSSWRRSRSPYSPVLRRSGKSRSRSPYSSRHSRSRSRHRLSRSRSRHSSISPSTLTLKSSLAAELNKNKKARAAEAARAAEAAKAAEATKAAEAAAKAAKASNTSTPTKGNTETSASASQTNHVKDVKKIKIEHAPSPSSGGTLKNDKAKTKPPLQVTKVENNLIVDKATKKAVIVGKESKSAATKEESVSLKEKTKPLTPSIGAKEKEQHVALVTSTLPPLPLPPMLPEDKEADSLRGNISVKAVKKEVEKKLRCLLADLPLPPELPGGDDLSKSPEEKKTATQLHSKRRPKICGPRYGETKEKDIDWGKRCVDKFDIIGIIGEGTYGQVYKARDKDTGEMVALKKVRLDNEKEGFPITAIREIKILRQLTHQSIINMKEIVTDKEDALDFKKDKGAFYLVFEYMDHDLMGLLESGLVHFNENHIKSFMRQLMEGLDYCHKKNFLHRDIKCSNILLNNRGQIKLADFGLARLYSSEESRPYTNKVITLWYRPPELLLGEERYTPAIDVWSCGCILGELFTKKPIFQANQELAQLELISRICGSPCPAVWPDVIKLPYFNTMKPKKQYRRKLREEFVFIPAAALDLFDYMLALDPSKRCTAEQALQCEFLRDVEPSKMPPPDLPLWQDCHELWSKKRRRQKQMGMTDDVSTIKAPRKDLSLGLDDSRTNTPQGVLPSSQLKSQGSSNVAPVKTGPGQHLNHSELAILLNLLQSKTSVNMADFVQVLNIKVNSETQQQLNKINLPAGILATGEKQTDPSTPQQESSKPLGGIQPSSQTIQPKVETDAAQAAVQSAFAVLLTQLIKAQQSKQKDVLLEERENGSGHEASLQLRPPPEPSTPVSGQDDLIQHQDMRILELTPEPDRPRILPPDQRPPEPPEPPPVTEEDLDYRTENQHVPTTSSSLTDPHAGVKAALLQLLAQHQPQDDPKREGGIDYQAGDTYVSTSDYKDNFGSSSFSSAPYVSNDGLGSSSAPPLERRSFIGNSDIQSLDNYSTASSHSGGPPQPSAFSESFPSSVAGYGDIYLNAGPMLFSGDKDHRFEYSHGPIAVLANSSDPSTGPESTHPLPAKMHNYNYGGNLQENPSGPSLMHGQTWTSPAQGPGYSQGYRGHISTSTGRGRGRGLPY
# [8] = molecular target: protein kinases (human kinome) (Homo sapiens, UniProt Q16584)
# Chain of protein kinases (human kinome) (Homo sapiens, UniProt Q16584) (Q16584 whole entry): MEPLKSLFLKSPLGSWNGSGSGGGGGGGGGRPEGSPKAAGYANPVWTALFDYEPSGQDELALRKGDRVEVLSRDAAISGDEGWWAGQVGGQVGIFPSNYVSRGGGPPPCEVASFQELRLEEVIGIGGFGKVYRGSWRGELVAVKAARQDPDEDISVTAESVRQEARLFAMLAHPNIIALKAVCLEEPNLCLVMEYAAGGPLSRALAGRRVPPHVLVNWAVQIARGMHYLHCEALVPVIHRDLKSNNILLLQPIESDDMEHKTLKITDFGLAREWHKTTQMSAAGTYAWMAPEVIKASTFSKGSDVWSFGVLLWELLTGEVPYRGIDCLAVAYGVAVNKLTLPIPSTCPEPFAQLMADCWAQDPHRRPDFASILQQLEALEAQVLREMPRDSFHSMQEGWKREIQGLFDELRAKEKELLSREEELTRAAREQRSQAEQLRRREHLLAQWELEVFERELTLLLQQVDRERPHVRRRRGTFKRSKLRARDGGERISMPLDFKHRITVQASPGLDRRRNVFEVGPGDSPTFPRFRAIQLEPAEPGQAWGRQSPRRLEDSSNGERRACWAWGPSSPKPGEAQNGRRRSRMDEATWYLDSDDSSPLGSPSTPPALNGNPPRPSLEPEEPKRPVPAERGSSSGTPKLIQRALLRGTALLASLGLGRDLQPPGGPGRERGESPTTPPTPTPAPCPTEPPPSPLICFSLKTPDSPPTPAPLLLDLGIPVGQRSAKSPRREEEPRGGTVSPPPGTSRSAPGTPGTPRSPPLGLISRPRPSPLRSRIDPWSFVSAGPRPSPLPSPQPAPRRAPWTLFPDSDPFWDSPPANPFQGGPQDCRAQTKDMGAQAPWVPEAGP
# [9] = Experiment wp105, direction of change down
# [10] = experiment wp016, 1 uM, direction of change down
# [11] = experiment wp016, direction of change down
# [12] = experiment wp103, direction of change down
# [13] = experiment wp107, direction of change down
# [14] = experiment wp133, 2 hr, direction of change down
# [15] = experiment wp133, 4 hr, direction of change down
# [16] = experiment wp160, 2 hr, direction of change down
# [17] = experiment wp160, 4 hr, direction of change down
# [18] = experiment wp172, direction of change down
smiles,measurement,setting,value
CC(C)(C)c1nc(-c2cccc(NS(=O)(=O)c3c(F)cccc3F)c2F)c(-c2ccnc(NCCOCCNC(=O)CCOCCOCCNc3cccc4c3CN(C3CCC(=O)NC3=O)C4=O)n2)s1 (stereo not drawn) [DD.03.107],logFC NADK2,"[1]; experiment wp147, 1 uM",−0.5404
same,logFC NADK2,"[1]; experiment wp147, 2 uM",−0.4442
same,logFC NADK2,"[1]; experiment wp147, 4 uM",−0.9504
same,logFC AGK (Q53H12),"[2]; Experiment wp147, 1 uM",−0.7983
same,logFC AGK (Q53H12),"[2]; Experiment wp147, 2 uM",−0.8655
same,logFC AGK (Q53H12),"[2]; Experiment wp147, 4 uM",−1.343
same,logFC TBRG4,"[3]; experiment wp147, 1 uM",−0.6245
same,logFC TBRG4,"[3]; experiment wp147, 2 uM",−0.6284
same,logFC TBRG4,"[3]; experiment wp147, 4 uM",−1.105
CN(C)C(=O)c1cc2cnc(Nc3ccc(N4CCN(CCCCNC(=O)COc5cccc6c5C(=O)N(C5CCC(=O)NC5=O)C6=O)CC4)cn3)nc2n1C1CCCC1 (stereo not drawn) [BSJ.04.132],logFC NADK2,[1]; experiment wp084,−0.5591
same,logFC AGK (Q53H12),[2]; Experiment wp084,−0.6709
same,logFC TBRG4,[3]; experiment wp084,−0.6395
CC(C)S(=O)(=O)c1ccccc1Nc1nc(Nc2ccc(N3CCN(CCOCCNC(=O)CNc4cccc5c4C(=O)N(C4CCC(=O)NC4=O)C5=O)CC3)cc2)ncc1Cl (stereo not drawn) [SK.3.91],logFC CDK2 (P24941-1),[4]; Experiment wp103,−0.4588
same,logFC CDK2 (P24941-1),[4]; [9],−0.4593
same,logFC CDK2 (P24941-1),[4]; Experiment wp107,−0.7583
same,logFC CDK2 (P24941-1),"[4]; Experiment wp160, 2 hr",−0.383
same,logFC CDK2 (P24941-1),[4]; Experiment wp172,−0.8996
same,logFC CDK2 (P24941-1),[4]; experiment wp016,−0.5115
same,logFC CDK2 (P24941-1),"[4]; experiment wp016, 1 uM",−1.047
same,logFC CDK2 (P24941-1),[4]; [10],−1.047
same,logFC CDK2 (P24941-1),[4]; [11],−0.5115
same,logFC CDK2 (P24941-1),[4]; [12],−0.4588
same,logFC CDK2 (P24941-1),[4]; experiment wp105,−0.4593
same,logFC CDK2 (P24941-1),[4]; [13],−0.7583
same,logFC CDK2 (P24941-1),"[4]; experiment wp133, 2 hr",−0.4306
same,logFC CDK2 (P24941-1),[4]; [14],−0.4306
same,logFC CDK2 (P24941-1),"[4]; experiment wp133, 4 hr",−0.6908
same,logFC CDK2 (P24941-1),[4]; [15],−0.6908
same,logFC CDK2 (P24941-1),[4]; [16],−0.383
same,logFC CDK2 (P24941-1),"[4]; experiment wp160, 4 hr",−0.647
same,logFC CDK2 (P24941-1),[4]; [17],−0.647
same,logFC CDK2 (P24941-1),[4]; [18],−0.8996
same,logFC of CSK,[5]; experiment wp016,−0.3254
same,logFC of CSK,"[5]; experiment wp016, 1 uM",−0.6596
same,logFC of CSK,[5]; experiment wp103,−0.4343
same,logFC of CSK,[5]; experiment wp105,−0.7044
same,logFC of CSK,[5]; experiment wp107,−0.5646
same,logFC of CSK,"[5]; experiment wp133, 4 hr",−0.5492
same,logFC of CSK,"[5]; experiment wp160, 4 hr",−0.4976
same,logFC of CSK,[5]; experiment wp172,−0.4225
same,logFC CSK,"[5]; experiment wp016, 1 uM",−0.6596
same,logFC CSK,[5]; experiment wp016,−0.3254
same,logFC CSK,[5]; experiment wp103,−0.4343
same,logFC CSK,[5]; experiment wp105,−0.7044
same,logFC CSK,[5]; experiment wp107,−0.5646
same,logFC CSK,"[5]; experiment wp133, 4 hr",−0.5492
same,logFC CSK,"[5]; experiment wp160, 4 hr",−0.4976
same,logFC CSK,[5]; experiment wp172,−0.4225
same,logFC of CDK5,[6]; experiment wp016,−1.126
same,logFC of CDK5,"[6]; experiment wp016, 1 uM",−1.429
same,logFC of CDK5,[6]; experiment wp103,−1.043
same,logFC of CDK5,[6]; experiment wp105,−0.931
same,logFC CDK5 (Q00535),[6]; [9],−0.931
same,logFC CDK5 (Q00535),[6]; Experiment wp107,−1.014
same,logFC CDK5 (Q00535),[6]; Experiment wp114,−0.468
same,logFC CDK5 (Q00535),"[6]; Experiment wp114, direction of change down",−0.468
same,logFC CDK5 (Q00535),"[6]; Experiment wp160, 2 hr",−0.6265
same,logFC CDK5 (Q00535),[6]; Experiment wp172,−1.304
same,logFC CDK5 (Q00535),[6]; [10],−1.429
same,logFC CDK5 (Q00535),[6]; [11],−1.126
same,logFC CDK5 (Q00535),[6]; [12],−1.043
same,logFC CDK5 (Q00535),[6]; [13],−1.014
same,logFC CDK5 (Q00535),"[6]; experiment wp133, 2 hr",−0.6608
same,logFC CDK5 (Q00535),[6]; [14],−0.6608
same,logFC CDK5 (Q00535),"[6]; experiment wp133, 4 hr",−1.242
same,logFC CDK5 (Q00535),[6]; [15],−1.242
same,logFC CDK5 (Q00535),"[6]; experiment wp160, 1 hr",−0.3257
same,logFC CDK5 (Q00535),"[6]; experiment wp160, 1 hr, direction of change down",−0.3257
same,logFC CDK5 (Q00535),[6]; [16],−0.6265
same,logFC CDK5 (Q00535),"[6]; experiment wp160, 4 hr",−1.197
same,logFC CDK5 (Q00535),[6]; [17],−1.197
same,logFC CDK5 (Q00535),[6]; [18],−1.304
same,logFC CDK13,[7]; experiment wp016,−0.6046
same,logFC CDK13,"[7]; experiment wp016, 1 uM",−0.5749
same,logFC CDK13,[7]; experiment wp103,−0.4833
same,logFC CDK13,[7]; experiment wp105,−0.4649
same,logFC CDK13,[7]; experiment wp107,−0.7112
same,logFC CDK13,"[7]; experiment wp133, 4 hr",−0.5562
same,logFC CDK13,"[7]; experiment wp160, 4 hr",−0.4805
same,logFC CDK13,[7]; experiment wp172,−0.859
same,logFC,"[7]; CDK13 (Q14004-1), experiment wp016, 1 uM",−0.5749
same,logFC CDK13 (Q14004-1),[7]; Experiment wp172,−0.859
same,logFC CDK13 (Q14004-1),[7]; experiment wp016,−0.6046
same,logFC CDK13 (Q14004-1),[7]; experiment wp103,−0.4833
same,logFC CDK13 (Q14004-1),[7]; experiment wp105,−0.4649
same,logFC CDK13 (Q14004-1),[7]; experiment wp107,−0.7112
same,logFC CDK13 (Q14004-1),"[7]; experiment wp133, 4 hr",−0.5562
same,logFC CDK13 (Q14004-1),"[7]; experiment wp160, 4 hr",−0.4805
same,logFC MAP3K11 (Q16584),[8]; experiment wp103,−0.7838
same,logFC MAP3K11 (Q16584),[8]; experiment wp107,−2.182
same,logFC MAP3K11 (Q16584),[8]; experiment wp114,−0.4774
same,logFC MAP3K11 (Q16584),"[8]; experiment wp133, 1 hr",−0.3986
same,logFC MAP3K11 (Q16584),"[8]; experiment wp133, 2 hr",−0.8441
same,logFC MAP3K11 (Q16584),"[8]; experiment wp133, 4 hr",−1.487
same,logFC NADK2,"[1]; experiment wp160, 1 hr",−0.698
same,logFC TBRG4,"[3]; experiment wp160, 1 hr",−0.9113
